Measurements taken from patent US20220257595A1, “MACITENTAN FOR USE IN TREATING PORTOPULMONARY HYPERTENSION” (ACTELION PHARMACEUTICALS LTD, priority 2019, published 2022).

Experiments:
patients with PoPH [1] = test: PORTICO safety: liver test and hemoglobin laboratory abnormalities; type: in vivo
Excerpt: (§1) For the evaluation of treatment-emergent safety endpoints in the DB phase, the observation period for each individual subject started at the time of the first administration of macitentan or placebo and ended with the start of OL treatment or 30 days after DB treatment discontinuation (whichever occurred first). The safety variables listed below apply to the DB treatment-emergent period and the macitentan treatment-emergent period. The DB treatment-emergent period was defined as the period from the DB treatment start date up to the EOT-DB+30 days or to the EOT-DB for patients entering OL. The macitentan treatment-emergent period was defined as the period from the first intake of macitentan up to end of macitentan treatment (EOMT)+30 days. EOMT was defined as EOT-DB (for patient who received macitentan only in the DB period) or EOT-OL when applicable. For patients entering OLE, the EOMT is EOT-OL. • Treatment-emergent AEs • Treatment-emergent deaths • Treatment-emergent serious adverse events (SAEs) • AEs leading to premature discontinuation of study treatment • Occurrence of post-baseline LFT (ALT and/or AST) abnormalities, classified as: • ≥3×ULN; • ≥5×ULN; • ≥8×ULN; • ≥3×ULN and <5×ULN; • […] and <8×ULN. • Occurrence of post-baseline ALT and/or AST abnormality 3×ULN and concomitant (i.e., at the same time) total bilirubin ≥2×ULN • Occurrence of post-baseline ALT and/or AST abnormality ≥3×ULN and concomitant (i.e., at the same time) total bilirubin ≥2×ULN and increased as compared to baseline • Occurrence of hemoglobin abnormalities, classified as: • ≤80 g/L, • >80 and ≤100 g/L, • decrease from baseline ≥20 g/L and <50 g/L, • decrease from baseline ≥50 g/L, • <100 g/L and concurrent (i.e., at the same time) decrease from baseline ≥20 g/L. • Other treatment-emergent marked laboratory abnormalities • Change from baseline/macitentan baseline to EOT-DB/EOMT in vital signs • Change from baseline/macitentan baseline to EOT-DB/EOMT in laboratory variables • Change from baseline/macitentan baseline to EOT-DB/EOMT in Child-Pugh classification • Change from baseline/macitentan baseline to EOT-DB/EOMT in MELD score
Treatment-emergent liver test and hemoglobin abnormalities are those that occurred during the DB treatment-emergent (SS) and macitentan treatment-emergent (MTS) periods that were not present at baseline.
For post-baseline liver test abnormalities, the following events are considered: • ALT and/or AST ≥3×ULN, • ALT and/or AST ≥5×ULN, • ALT and/or AST ≥8×ULN, • ALT and/or AST ≥3×ULN and <5×ULN, • ALT and/or AST ≥5×ULN and <8×ULN, • ALT and/or AST ≥3×ULN and concomitant (i.e., at the same time) total bilirubin ≥2×ULN. • ALT and/or AST 3×ULN and concomitant (i.e., at the same time) total bilirubin ≥2×ULN and increased as compared to baseline
The highest ALT or AST value at any post-baseline time point of assessment for DB treatment-emergent (SS) and macitentan treatment-emergent (MTS) periods was considered in the evaluation of incidences.
For the occurrence of post-baseline hemoglobin abnormalities, the following events were considered in the evaluation of incidences: • Hemoglobin ≤80 g/L, • Hemoglobin >80 and […], • Hemoglobin decrease from baseline ≥20 g/L and <50 g/L, • Hemoglobin decrease from baseline ≥50 g/L, • Hemoglobin <100 g/L and concurrent (i.e., at the same time) decrease from baseline ≥20 g/L.
The lowest hemoglobin value at any post-baseline time point of assessment for DB treatment-emergent (SS) and macitentan treatment-emergent (MTS) periods was considered in the evaluation of incidences.

patients with PoPH [2] = test: PORTICO safety: hematology (platelets, lymphocytes, neutrophils); type: in vivo
Excerpt: as §1

patients with PoPH [3] = test: PORTICO safety: Child-Pugh classification and MELD score; type: in vivo
Excerpt: (§2) For the evaluation of treatment-emergent safety endpoints in the DB phase, the observation period for each individual subject started at the time of the first administration of macitentan or placebo and ended with the start of OL treatment or 30 days after DB treatment discontinuation (whichever occurred first). The safety variables listed below apply to the DB treatment-emergent period and the macitentan treatment-emergent period. The DB treatment-emergent period was defined as the period from the DB treatment start date up to the EOT-DB+30 days or to the EOT-DB for patients entering OL. The macitentan treatment-emergent period was defined as the period from the first intake of macitentan up to end of macitentan treatment (EOMT)+30 days. EOMT was defined as EOT-DB (for patient who received macitentan only in the DB period) or EOT-OL when applicable. […]

patients with PoPH [4] = test: PORTICO safety: vital signs, body weight, BMI; settings: in vivo
Excerpt: as §2

[5] = DB phase, Safety set, 10 mg, N = 43, most extreme post-baseline value
[6] = single macitentan-treated patient, DB phase
[7] = single patient, DB+OL phase, malignant ascites and hepatic encephalopathy
[8] = LL at baseline, DB phase, Safety set, 10 mg
[9] = LL at baseline, macitentan DB + OL phase, Macitentan treated set
[10] = Normal at baseline, DB phase, Safety set, 10 mg
[11] = Normal at baseline, macitentan DB + OL phase, Macitentan treated set

CCCNS(=O)(=O)Nc1ncnc(OCCOc2ncc(Br)cn2)c1-c1ccc(Br)cc1 [macitentan, N-[5-(4-Bromophenyl)-6-[2-[(5-bromo-2-pyrimidinyl)oxy]ethoxy]-4-pyrimidinyl]-N′-propylsulfamide]
Patients with hemoglobin decreased to ≤80 g/L (patients with PoPH [1]; DB phase): none
ALT or AST >= 5*ULN (patients with PoPH [1]; [5]): 0/43
ALT or AST >= 5*ULN and <8*ULN (patients with PoPH [1]; [5]): 0/43
ALT or AST >= 8*ULN (patients with PoPH [1]; [5]): 0/43
Hemoglobin <= 80 g/L (patients with PoPH [1]; [5]): 0/43
Patients with hemoglobin decreased to ≤100 g/L (patients with PoPH [1]; DB phase, macitentan group): 3 patients
Patients with hemoglobin decreases of ≥20 g/L (patients with PoPH [1]; DB phase, macitentan group (12 patients)): 27.9%
Patients with aminotransferase increase to >3×ULN (patients with PoPH [1]; DB phase, macitentan-treated): 1 patient
ALT or AST >= 5*ULN and <8*ULN (patients with PoPH [1]; macitentan DB + OL phase, Macitentan treated set, N = 84): 0/84
Patients with aminotransferase increase to >3×ULN (patients with PoPH [1]; macitentan DB+OL phase): 2 patients
Patients with hemoglobin decrease of ≥50 g/L (patients with PoPH [1]; macitentan DB+OL phase): 6 patients
Patients with hemoglobin decreased to ≤80 g/L (patients with PoPH [1]; macitentan DB+OL phase): 4 patients
Patients with hemoglobin decreased to ≤100 g/L (patients with PoPH [1]; macitentan DB+OL phase): 13 patients
Patients with hemoglobin decreases of ≥20 g/L (patients with PoPH [1]; macitentan DB+OL phase (31 patients)): 37.3%
ALT in the patient with aminotransferase increase (patients with PoPH [1]; [6]): 3.1 ×ULN
AST in the patient with aminotransferase increase (patients with PoPH [1]; [6]): 3.2 ×ULN
Bilirubin in the patient with aminotransferase increase (patients with PoPH [1]; [6]): 2.7 ×ULN
ALT in the additional patient with aminotransferase increase (patients with PoPH [1]; [7]): 3.6 ×ULN
AST in the additional patient with aminotransferase increase (patients with PoPH [1]; [7]): 8.6 ×ULN
Bilirubin in the additional patient with aminotransferase increase (patients with PoPH [1]; [7]): 11.1 ×ULN
Macitentan-treated patients with Hy's Law range liver test abnormalities (patients with PoPH [1]; whole study): 2 patients
Median decrease in lymphocyte count, baseline to Week 12 (patients with PoPH [2]; DB phase, macitentan group): 2.8e+08 L⁻¹
Median decrease in neutrophil count, baseline to Week 12 (patients with PoPH [2]; DB phase, macitentan group): 7.2e+08 L⁻¹
Median decrease in platelets at Week 12 (patients with PoPH [2]; DB phase, macitentan group): 1.1e+10 L⁻¹
Median lymphocyte count at Week 12 (patients with PoPH [2]; DB phase, macitentan group): 1.04e+09 L⁻¹
Median neutrophil count at Week 12 (patients with PoPH [2]; DB phase, macitentan group): 2.25e+09 L⁻¹
Patients with neutrophil decreases from normal at baseline to <1.5×10^9/L (patients with PoPH [2]; DB phase, macitentan group): 6/41
Patients with normal platelets at baseline decreasing to <75×10^9/L (patients with PoPH [2]; DB phase, macitentan group): 2/29
Leukocytes (10^9/L) <2.0 (LLL), worst treatment-emergent marked abnormality (patients with PoPH [2]; [8]): 2/5
Lymphocytes (10^9/L) <0.5 (LLL), worst treatment-emergent marked abnormality (patients with PoPH [2]; [8]): 3/5
Neutrophils (10^9/L) <1.0 (LLL), worst treatment-emergent marked abnormality (patients with PoPH [2]; [8]): 0/2
Leukocytes (10^9/L) <2.0 (LLL), worst treatment-emergent marked abnormality (patients with PoPH [2]; [9]): 3/7
Lymphocytes (10^9/L) <0.5 (LLL), worst treatment-emergent marked abnormality (patients with PoPH [2]; [9]): 6/10
Neutrophils (10^9/L) <1.0 (LLL), worst treatment-emergent marked abnormality (patients with PoPH [2]; [9]): 0/2
Leukocytes (10^9/L) <2.0 (LLL), worst treatment-emergent marked abnormality (patients with PoPH [2]; [10]): 0/38
Leukocytes (10^9/L) <3.0 −≥ 2.0 (LL), worst treatment-emergent marked abnormality (patients with PoPH [2]; [10]): 5/38
Lymphocytes (10^9/L) <0.5 (LLL), worst treatment-emergent marked abnormality (patients with PoPH [2]; [10]): 1/38
Lymphocytes (10^9/L) <0.8 −≥ 0.5 (LL), worst treatment-emergent marked abnormality (patients with PoPH [2]; [10]): 8/38
Neutrophils (10^9/L) <1.0 (LLL), worst treatment-emergent marked abnormality (patients with PoPH [2]; [10]): 2/41
Neutrophils (10^9/L) <1.5 −≥ 1.0 (LL), worst treatment-emergent marked abnormality (patients with PoPH [2]; [10]): 4/41
Leukocytes (10^9/L) <2.0 (LLL), worst treatment-emergent marked abnormality (patients with PoPH [2]; [11]): 4/76
Leukocytes (10^9/L) <3.0 −≥ 2.0 (LL), worst treatment-emergent marked abnormality (patients with PoPH [2]; [11]): 9/76
Lymphocytes (10^9/L) <0.5 (LLL), worst treatment-emergent marked abnormality (patients with PoPH [2]; [11]): 2/72
Lymphocytes (10^9/L) <0.8 −≥ 0.5 (LL), worst treatment-emergent marked abnormality (patients with PoPH [2]; [11]): 19/72
Neutrophils (10^9/L) <1.0 (LLL), worst treatment-emergent marked abnormality (patients with PoPH [2]; [11]): 5/81
Neutrophils (10^9/L) <1.5 −≥ 1.0 (LL), worst treatment-emergent marked abnormality (patients with PoPH [2]; [11]): 12/81
Patients with shifts in lymphocyte counts from normal at baseline to <0.8×10^9/L (patients with PoPH [2]; any time during DB phase, macitentan group): 9/38
Median decrease from baseline in platelet counts (patients with PoPH [2]; combined DB+OL phase): no median decrease
Median decrease in lymphocyte count, baseline to Week 24 (patients with PoPH [2]; macitentan DB+OL phase): 2.4e+08 L⁻¹
Median decrease in neutrophil count, baseline to Week 24 (patients with PoPH [2]; macitentan DB+OL phase): 3.3e+08 L⁻¹
Median lymphocyte count at Week 24 (patients with PoPH [2]; macitentan DB+OL phase): 1.05e+09 L⁻¹
Median neutrophil count at Week 24 (patients with PoPH [2]; macitentan DB+OL phase): 2.4e+09 L⁻¹
Patients with platelet decreases from normal at macitentan baseline to <75×10^9/L (patients with PoPH [2]; macitentan DB+OL phase): 7 patients
Patients with shifts in lymphocyte counts from normal at baseline to <0.8×10^9/L (patients with PoPH [2]; macitentan DB+OL phase): 21/72
Patients with shifts in neutrophil counts from normal at baseline to notably low (patients with PoPH [2]; macitentan DB+OL phase): 17/81
Patients with worsening in Child-Pugh category (patients with PoPH [3]; DB phase, macitentan group n=23): none
Median MELD score at Week 12 (patients with PoPH [3]; DB phase, range 6-15): 10
Patients worsening from Child-Pugh category A to B during macitentan treatment (patients with PoPH [3]; combined DB+OL phase, patient had placebo in DB phase): 1 patient
Effect on vital signs, body weight or BMI (patients with PoPH [4]): no indication of any notable effect
